# In US20140378408A1, “NUCLEOSIDE 5'-PHOSPHOROTHIOATE ANALOGUES AND USES THEREOF” (BAR-ILAN UNIVERSITY, an Israeli University, priority 2012, published 2014):
# “Also recorded” adds a separate entry of the source. Like-named read-outs stand apart in the source and are kept apart here.
# Experiments:
# [1] = IV administration to mice, detection in blood by HPLC; type: in vivo
# [2] = tested on: human chondrocyte cells; assay: NTMP hydrolysis in human chondrocyte cells; type: cell-based; conditions: 0.1 mM, NTMP 0.1 mM, OD 405 nm
# Procedure: Increased chondrocyte PPi production, and PPi-generating NPP1 activity are linked with CPPD crystal deposition disease, common in aging and osteoarthritic cartilage. […] Its hydrolysis by endogenous enzyme (NPP1) from matrix vesicles (MVs), human chondrocytes or cartilage pieces results in elevated OD at 405 nm.
# In order to test the ability of the NPP1 inhibitor to inhibit NTMP hydrolysis in human chondrocyte cells, human chondrocytes 1.5×10^4 per well were seeded in 96 well plate in 100 μl DMEM/10% fetal calf serum (FCS). One day before the experiment, the medium was changed to DMEM only (w/o phenol red). Human chondrocytes were incubated with 0.1 mM NTMP in TES, pH 7.37, in the presence or absence of 0.1 mM of the NPP1 inhibitor for 0, 15′, 30′, 1, 2, 4, 6, 18 hours at 37° C. At each time point the reaction was read at 405 nm.
# [3] = tested on: chondrocytes; assay: Pyrophosphate formed by ATP hydrolysis in the presence of chondrocytes (fluorogenic sensor); type: cell-based, human; conditions: 8 h, ATP alone 0.46 μM, without chondrocytes 0.26 μM
# [4] = tested on: matrix vesicles (MVs); assay: CPPD formation in MVs by FTIR analysis; set-up: species or system human; conditions: MV+ATP+analogue
# [5] = Metabolic stability in mouse brain, liver and blood homogenates (HPLC); type: in vitro ADME, mice; conditions: 37° C., up to 180 min
# Procedure: In order to use APCPP-γ-S as a neuroprotectant agent and test its activity in an animal model, we first evaluated the metabolic stability of APCPP-γ-S in several tissues such as liver, brain and blood. In this assay we took samples from mice brain, liver and blood. The tissue samples were homogenated by sonication and split to 0.5 ml aliquots. Each sample was mixed with 0.1 mg of APCPP-γ-S and incubated at 37° C. for 10, 30, 90 and 180 min. After incubation, the samples were collected and extracted with chloroform at 1:1 v/v ratio. The aqueous layer was removed and freeze-dried. Samples were loaded onto an activated Starta X-AW weak anion exchange cartridge, washed with H2O (1 ml) and eluted with MeOH:H2O (1:1, 1 ml) followed by NH4OH:MeOH:H2O (2:25:73, 1 ml), and then freeze-dried. The resulting residue was analyzed by HPLC. […] Each analysis cycle was set to 30 minutes. The chromatographic flow was monitored at 260 nm and integrated using EZChrom Elite Software.
# [6] = Pharmacokinetics and BBB permeation after IV injection in mice; type: in vivo, F1 (C57B×S29) mice
# Procedure: As shown in Example 14, APCPP-γ-S is stable in human blood serum as well as in brain, liver and blood from mice. In this study, we evaluated APCPP-γ-S blood-brain barrier (BBB) permeability and pharmacokinetics in F1 (C57B×S29) mice. APCPP-γ-S was injected intravenously (IV) at 40 mg/Kg into four mice (each mouse was injected with 1.5 mg of APCPP-γ-S). The mice were sacrificed after 30 minutes (2 of the 4) or 90 minutes (thr other 2 of the 4), and samples from brain and blood were taken to analysis. Each sample was collected into 0.5 ml saline, sonicated and extracted with chloroform, applied onto an anion exchange cartridge, and freeze-dried. The resulting residue was analyzed by HPLC. We detected the presence of 67.5 and 64% of the injected amount of APCPP-γ-S in the blood samples after 30 and 90 minutes, respectively. In the brain sample we obtained ca. 2% permeability (data not shown).
# [7] = tested on: primary neurons; assay: Protection of primary neuron culture against Aβ42 insult (trypan blue count); type: cell-based; conditions: Primary neuron
# Procedure: Primary neuron cells were cultured in 96 wells plate (95×10^4 per well). After 24 h the cells were treated with 50 μM Aβ42 and various concentrations of APCPP-γ-S (0.04-25 μM) for 48 h. Cell viability was measured by dyeing the cells with trypan blue and counts of the vital cells. The results shown are the mean±S.D of three independent experiments in triplicate (*P<0.05, vs. Aβ42 treatment).
# Primary neurons cells were cultured in 96 wells plate (95×10^4 per well). […] Cell viability was measured by dyeing the cells with trypan blue and counts the vital cells. The results shown are the mean±S.D of three independent experiments in triplicate (*P<0.05, **P<0.01 vs. Aβ42 treatment).
# In this study, the neuroprotective activity of APCPP-γ-S in neuronal cells exposed to toxic Aβ42 was evaluated. At first we measured the number of the viable neuronal cells after treatment with Aβ42 (5-50 μM) (FIG. 11). At 50 μM Aβ42, 50% of the neuronal culture remained vital. Next, we measured the protective effect of APCPP-γ-S: primary neurons were treated with APCPP-γ-S (0.04-25 μM) and 50 μM Aβ42 for 48 h.
# [8] = Stability in human blood serum; type: in vitro ADME
# [9] = target: T1, Aβ40-Cu^+ complex (Homo sapiens, UniProt P05067); assay: Re-solubilization of Aβ40-Cu^+ aggregates monitored by 1H-NMR; conditions: 6 eq, pD 7.8
# T1 construct: purchased GL-Biochem (Shanghai)
# T1 sequence (P05067 672-711, one chain of several): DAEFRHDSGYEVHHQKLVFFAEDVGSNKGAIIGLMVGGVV
# Procedure: ^1H-NMR spectrum of 0.25 mM Aβ40 (concentration determined by UV) in 10 mM TRIS-d11 (500 μl, pD 11) was measured at 278 K. The pD was adjusted to 7.8 by the addition of 0.1 N DCl (33 μl), and ^1H-NMR spectrum was measured (700 MHz, 80 scans), as well as after each of the following additions: (A) 8.3 mM Cu^+ (15 μl, 1 eq); (B) 6 mM compound 7 (21 μl, 1 eq); (C) 6 mM compound 7 (42 μL, 3 eq); (D) of 6 mM APCPP-γ-S (62.4 μl, 6 eq); (E) of 6 mM APCPP-γ-S (62.4 μl, 9 eq). At the end of the titration, the acetonitrile concentration was 2% (v/v) in 735.8 μl, pD 8.4.
# APCPP-γ-S, the most promising chelator identified here, was used also to resolubilize Aβ40-Cu^+ aggregates. This process was monitored by ^1H-NMR similar to that described above for Aβ28. First, the ^1H-NMR spectrum of 0.25 mM Aβ40 monomer at 278 K, pD 11, was measured (FIG. 7a), after adjustment of Aβ40 solution pD to 7.8 the signals shifted and broadened (FIG. 7b). Upon addition of 1 eq 8.3 mM Cu(CH3CN)4PF6 the signals dramatically further broadened (FIG. 7c).
smiles,measurement,setting,value
"Nc1ncnc2c1ncn2[C@@H]1O[C@H](COP(O)(=S)OP(=O)(O)C(Cl)(Cl)P(=O)(O)O)[C@@H](O)[C@H]1O (single isomer, unassigned) [APPCCl2P-α-S, adenosine 5′-[Pα-thio]-β,γ-(dichloromethylene)triphosphate]",detection in blood after IV administration,[1],could be detected in blood (by HPLC) even after 3 h
"Nc1ncnc2c1ncn2[C@@H]1O[C@H](COP(O)(=S)OP(=O)(O)C(Cl)(Cl)P(=O)(O)O)[C@@H](O)[C@H]1O (single isomer, unassigned; isomer a) [APPCCl2P-α-S (isomer A), adenosine 5′-[Pα-thio]-β,γ-(dichloromethylene)triphosphate]",inhibition of NTMP hydrolysis in human chondrocyte cells,[2],inhibit the hydrolysis of NTMP
same,PPi formed on co-application with ATP,[3],0.029 µM
same,CPPD production in MVs (FTIR bands 920 and 1125 cm^−1),[4],a decrease in production of CPPD
"Nc1ncnc2c1ncn2[C@@H]1O[C@H](COP(=O)(O)CP(=O)(O)OP(O)(O)=S)[C@@H](O)[C@H]1O [APCPP-γ-S, adenosine 5′-[Pγ-thio]-α,β-methylenetriphosphate]","metabolic stability in brain, liver and blood",[5],no significant degradation after 3 h; also recorded: could be detected even after 180 min
same,injected amount present in blood,"[6]; IV 40 mg/Kg, after 30 minutes",67.5%
same,permeability into brain,"[6]; IV 40 mg/Kg, brain sample",ca. 2%
same,injected amount present in blood,"[6]; IV, after 90 minutes",64%
same,IC50,"[7]; 48 h, read-out: concentration that maintained 50% of neuronal cells",200 nM
same,IC50,[7]; read-out: IC50 protection from Aβ42 insult,200 nM
same,stability in human blood serum,[8],stable
same,effect on Aβ40-Cu^+ 1H-NMR spectrum,[9],all signals reappeared
